Experimental data published in patent US11365185B2, “Lysophosphatidic acid receptor 1 (LPAR1) inhibitor compounds” (Eli Lilly and Company, priority 2017, dated 2022).
Counter-ions that a name gives are not always drawn.

How the values were obtained:
LPAR1 [1] = target: T1, LPAR1 (Homo sapiens (Human), UniProt Q92633); assay: LPAR1 Cytokine Release Assay (IL-6, MG63 cells); format: cell-based; details: LPA-stimulated IL-6 levels, 24 hours, ELISA
Procedure: LPAR1 Cytokine Release Assay
Human MG63 cells are seeded at 20,000 per well in 96-well plates and incubated in MEM medium. One day later, the cell culture medium is removed and 60 μl of test compounds are added to each well. 30 minutes later, 60 μl of LPA (10 μM) are added to each well. 24 hours later, 50 μl of supernatant from each well are taken and IL-6 levels are measure by using ELISA kit (R&D Systems, Cat. No. D6050). IC50 values are determined using “Genedata Screener” analysis tool.
Target sequence in this assay (Q92633 whole entry): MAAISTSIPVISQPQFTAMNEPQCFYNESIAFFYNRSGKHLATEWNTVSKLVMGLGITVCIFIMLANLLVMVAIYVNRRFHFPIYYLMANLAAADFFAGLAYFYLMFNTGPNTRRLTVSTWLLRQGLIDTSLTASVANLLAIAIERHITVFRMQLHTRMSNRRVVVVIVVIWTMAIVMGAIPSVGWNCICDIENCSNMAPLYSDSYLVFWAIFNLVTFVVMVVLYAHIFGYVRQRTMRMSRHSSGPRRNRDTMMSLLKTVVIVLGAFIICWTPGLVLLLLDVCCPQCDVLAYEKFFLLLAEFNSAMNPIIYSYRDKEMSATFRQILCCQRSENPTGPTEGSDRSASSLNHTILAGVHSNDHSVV

[2] = test system: Human hepatic stellate cell line LX-2; assay: Calcium Influx of Human Hepatic Stellate Cells (LX-2); format: cell-based; details: LX-2 cells, LPA-stimulated calcium influx
Procedure: Calcium Influx of Human Hepatic Stellate Cells (LX-2)
Human hepatic stellate cell line LX-2 is purchased from EMD Millpore. LX-2 cells are seeded at 20,000-40,000 cells per well in a 96-well poly-D-lysine coated plate one day before the assay. Prior to the assay, the cells are washed once with assay buffer (HBSS containing 20 mM HEPES and 0.2% BSA) and then incubated in 50 μl of assay buffer for 60 minutes. Then 50 μl of a calcium indicator dye (Fluo-4 NW, Molecular Probes) are added to each well and incubation is continued for 30 minutes at 37° C. and then 30 minutes at room temperature. 50 μl of test compounds in 4% DMSO are added to the cells and incubation is continued at room temperature for 40 minutes. Cells are stimulated by the addition of 50 μl of 128 nM LPA and intracellular calcium is measured using the FLIPR TETRA (Molecular Devices). IC50 values are determined using “Genedata Screener” analysis tool.

LPAR1 [3] = target: T1, LPAR1; assay: LPAR1 Calcium Flux Assay; format: cell-based; details: U937 cells overexpressing human LPAR1, LPA-stimulated calcium, FLIPR
Procedure: LPAR1 Calcium Flux Assays
(§1) A cDNA encoding the human LPAR1 receptor is synthesized and cloned into pDNA3 expression plasmid. The plasmid is transfected in U937 cells using Lipofectamine 2000 (Invitrogen Corp., USA). Clones stably expressing human LPAR1 are selected using puromycin and identified as cells that show Ca-influx in response to LPA.
U937 cells overexpressing human LPAR1 are seeded at 100,000 cells per well in a 96-well fibronectin (10 ug/ml) coated plate in 60 μl of assay buffer (HBSS containing 20 mM HEPES and 0.2% BSA) and then incubated for 60 minutes. Then 50 μl of a calcium indicator dye (Fluo-4 NW, Molecular Probes) are added to each well and incubation continued for 30 minutes at 37° C. and then 30 minutes at room temperature. 50 μl of test compounds in 4% DMSO are added to the cells and incubation continued at room temperature for 40 minutes. Cells are the stimulated by the addition of 50 μl of 128 nM LPA and intracellular calcium is measured using the FLIPR TETRA (Molecular Devices). IC50 values are determined using “Genedata Screener” analysis tool.
Target sequence in this assay (Q92633 whole entry): as above

human LPAR3 = human LPAR3 (Homo sapiens (Human), UniProt Q9UBY5); assay: LPAR3 Calcium Flux Assay; format: cell-based; details: U2OS cells overexpressing human LPAR3, LPA-stimulated calcium, FLIPR
human LPAR3, sequence (Q9UBY5 whole entry): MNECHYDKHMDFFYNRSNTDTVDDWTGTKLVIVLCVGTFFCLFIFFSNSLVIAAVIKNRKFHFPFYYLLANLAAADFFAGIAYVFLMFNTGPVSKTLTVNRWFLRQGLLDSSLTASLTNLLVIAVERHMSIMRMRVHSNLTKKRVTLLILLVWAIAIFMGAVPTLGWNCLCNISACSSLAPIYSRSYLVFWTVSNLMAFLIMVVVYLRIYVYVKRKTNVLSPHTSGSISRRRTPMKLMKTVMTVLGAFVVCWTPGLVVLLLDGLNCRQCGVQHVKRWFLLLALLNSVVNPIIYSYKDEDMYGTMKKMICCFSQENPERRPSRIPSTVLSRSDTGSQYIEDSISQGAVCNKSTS
Procedure: LPAR3 Calcium Flux Assays
as §1, with “LPAR3” for “LPAR1”, “U2OS” for “U937”, “neomycin” for “puromycin”
U2OS cells overexpressing human LPAR3 are seeded at 20,000-40,000 cells per well in a 96-well poly-D-lysine coated plate one day before the assay. Prior to the assay, the cells are washed once with assay buffer (HBSS containing 20 mM HEPES and 0.2% BSA) and then incubated in 50 μl of assay buffer for 60 minutes. Then 50 μl of a calcium indicator dye (Fluo-4 NW, Molecular Probes) are added to each well and incubation is continued for 30 minutes at 37° C. and then 30 minutes at room temperature. 50 μl of test compounds in 4% DMSO are added to the cells and incubation continued at room temperature for 40 minutes. Cells are stimulated by the addition of 50 μl of 128 nM LPA and intracellular calcium is measured using the FLIPR TETRA (Molecular Devices). IC50 values are determined using “Genedata Screener” analysis tool.

LPAR1 [4] = target: T1, LPAR1; assay: LPAR1 Membrane Binding Assay; details: membrane containing LPAR1, radio labeled ligand, SPA
Procedure: LPAR1 Membrane Binding Assay
The ability of a compound to inhibit binding of a ligand (1-(4′-(4-(((benzyloxy)carbonyl)amino)-3-methylisoxazol-5-yl)-[1,1′-biphenyl]-4-yl)cyclopropane-1-carboxylic acid) to LPAR1 is assessed via a membrane binding assay. Membrane containing LPAR1 was purchased from Cerep (Cat. No. 290312RB). Prior to the assay, membrane is thawed and homogenized for 15 seconds. 50 μl of test compounds and 50 μl of radio labeled ligand are added to the 96-well plates and then 50 of μl membrane (50-400 ug/ml) are added. Next, 50 μl of SPA PVT WGA beads are added (1-5 mg/ml) and the plates are sealed and incubated at room temperate for 5 minutes. Radio activity is measured by Beta Counter and IC50 values are determined using “Genedata Screener” analysis tool.
Target sequence in this assay (Q92633 whole entry, species assumed): as the sequence (Q92633 whole entry) above

[5] = Rodent Pharmacokinetics - Rat PK; format: in vivo, male Sprague-Dawley rats; details: male, Sprague-Dawley, plasma
Procedure: (§2) The pharmacokinetics of compounds are determined in male Sprague-Dawley rats or C57 mice. The rats are administered a single 1 mg/kg intravenous (IV) and 10 mg/kg oral gavage (PO) dose. The vehicles are 20% Captisol w/v in 25 mM NaPO4 buffer, pH8 and 1% hydroxyethylcellulose/0.25% polysorbate 80 and 0.05% antifoam 1510-US in distilled water for the intravenous and oral dose, respectively. Blood samples are collected at predose (PO only), 0.08 (IV only), 0.25, 0.5, 1, 2, 4, 8, 12 and 24 h after initiation of compound administration. Blood samples are centrifuged to obtain plasma. The plasma samples are analyzed by LC-MS/MS to determine compound concentrations.

Male C57BL/6J mice = assay: Mouse Intravenous LPA-Induced Histamine and Eicosanoids Release; format: in vivo; details: 10 mg/kg orally 2 hours before intravenous LPA; plasma
Procedure: Mouse Intravenous LPA-Induced Histamine and Eicosanoids Release
A mouse intravenous LPA-induced histamine and eicosanoids release model is utilized to determine the in vivo potency of the compounds of the present invention. Male C57BL/6J mice weighing 20-25 grams are given free access to standard mouse chow and water. LPA is dissolved in 0.1% fatty acid-free bovine serum albumin to generate solution at 2 mg/mL. Test compounds are formulated in 0.5% methyl cellulose plus 0.25% Tween 80 to generate required concentrations one day before the experiment and stored in a refrigerator until use. Animals are dosed orally with test compounds at 10 ml/kg 2 hours before the intravenous LPA dosing (300 ug per mouse) with 30 gauge needles through tail vain. Two hours after LPA dosing the animals are euthanized by CO2 suffocate. Blood will be collected by cardiac puncture. Blood samples are kept on ice for more than 5 minutes and centrifuged at 4000 rpm for 10 minutes at 4° C. to generate supernatant plasma. The plasma histamine, methylimidazol acetic acid and eicosanoids levels are measured by LC/MS.

[6] = Rodent Pharmacokinetics - Mouse PK; format: in vivo, C57 mice; details: C57, plasma; for AUC / bioavailability: 10 mg/kg; for AUC: PO; for clearance / Vd: intravenous; for Vd: read-out: Vdss; for bioavailability: oral
Procedure: as §2

| Structure (SMILES) | IC50 (LPAR1 [1]) [nM] | IC50 [2] [nM] | IC50 (LPAR1 [3]) [nM] | IC50 (human LPAR3) [nM] | Ki (LPAR1 [4]) [nM] | AUC ([5]; 10 mg/kg, PO) [µM·h] | clearance ([5]; intravenous, 1 mg/kg) [mL/min/kg] | Vd ([5]; intravenous, 1 mg/kg, read-out: Vdss) [L/kg] | bioavailability ([5]; oral, 10 mg/kg) [%] | % of inhibition, 9,10-cis epoxide of linoleic acid (Male C57BL/6J mice) [%] | % of inhibition, 12-hydroxyeicosatetraenoic acid (Male C57BL/6J mice) [%] | % of inhibition, methylimidazoleacetic acid (Male C57BL/6J mice) [%] | AUC [6] [µM·h] | clearance [6] [mL/min/kg] | Vd [6] [L/kg] | bioavailability [6] [%] |
| --- | --- | --- | --- | --- | --- | --- | --- | --- | --- | --- | --- | --- | --- | --- | --- | --- |
| Cc1cc(C2(C(=O)O)CC2)ccc1-c1ccc(-c2cnn(C)c2Nc2cncc(C(C)C)n2)nc1 [Example 22, 1-[4-[6-[5-[(6-isopropylpyrazin-2-yl)amino]-1-methyl-pyrazol-4-yl]-3-pyridyl]-3-methyl-phenyl]cyclopropanecarboxylic Acid; Hydrochloride] | 11.2 | 10.4 | 30.9 | 1170 |  |  |  |  |  |  |  |  |  |  |  |  |
| CC(C)Cc1cncc(Nc2c(-c3ccc(-c4ccc(C5(C(=O)O)CC5)cc4)cc3)cnn2C)n1 [Example 17, 1-[4-[4-[5-[(6-isobutylpyrazin-2-yl)amino]-1-methyl-pyrazol-4-yl]phenyl]phenyl]cyclopropanecarboxylic Acid] | 5.81 | 23.1 | 54.7 | 1830 |  |  |  |  |  |  |  |  |  |  |  |  |
| CC(C)c1cncc(Nc2c(-c3ncc(-c4ccc(C5(C(=O)O)CC5)cc4)cn3)cnn2C)n1 [Example 18, 1-[4-[2-[5-[(6-isopropylpyrazin-2-yl)amino]-1-methyl-pyrazol-4-yl]pyrimidin-5-yl]phenyl]cyclopropanecarboxylic acid] | 6.67 | 7.94 | 24 | 2360 | 24.5 |  |  |  |  |  |  |  |  |  |  |  |
| CC(C)Oc1cncc(Nc2c(-c3ccc(-c4ccc(C5(C(=O)O)CC5)cc4)cn3)cnn2C)n1.Cl [Example 20, 1-[4-[6-[5-[(6-isopropoxypyrazin-2-yl)amino]-1-methyl-pyrazol-4-yl]-3-pyridyl]phenyl]cyclopropanecarboxylic Acid; Hydrochloride] | 3.95 | 12 | 29.3 | 341 | 12.7 | 70.9 | 2.94 | 0.721 | 57.5 | 83.4 ± 6.4 | 68.8 ± 6.0 | 103.5 ± 0.6 |  |  |  |  |
| Cn1ncc(-c2ccc(-c3ccc(C4(C(=O)O)CC4)cc3)cn2)c1Nc1cncc(C(F)(F)F)n1 [Example 21, 1-[4-[6-[1-methyl-5-[[6-(trifluoromethyl)pyrazin-2-yl]amino]pyrazol-4-yl]-3-pyridyl]phenyl]cyclopropanecarboxylic Acid] | 8.81 | 14.1 | 36.3 | 1610 | 27.6 |  |  |  |  |  |  |  | 16.3 | 4.99 | 1.46 | 24.8 |
| CC(C)c1cncc(Nc2c(-c3ccc(-c4ccc(C5(C(=O)O)CC5)nc4)cn3)cnn2C)n1 [Example 23, Ammonia; 1-[5-[6-[5-[(6-isopropylpyrazin-2-yl)amino]-1-methyl-pyrazol-4-yl]-3-pyridyl]-2-pyridyl]cyclopropanecarboxylic Acid] | 183 | 21.5 | 111 | > 10000 |  |  |  |  |  |  |  |  |  |  |  |  |
| CC(C)c1cncc(Nc2c(-c3ccc(-c4ccc(C5(C(=O)O)CC5)cc4)cc3)cnn2C)n1 [Example 26, 1-[4-[4-[5-[(6-isopropylpyrazin-2-yl)amino]-1-methyl-pyrazol-4-yl]phenyl]phenyl]cyclopropanecarboxylic Acid] | 4.79 | 13.1 | 23.6 | > 10000 | 18.8 |  |  |  |  |  |  |  | 9.06 | 2 | 2 | 30 |
| COC(C)(C)c1cncc(Nc2c(-c3ccc(-c4ccc(C5(C(=O)O)CC5)cc4)cn3)cnn2C)n1 [Example 6, 1-[4-[6-[5-[[6-(1-methoxy-1-methyl-ethyl)pyrazin-2-yl]amino]-1-methyl-pyrazol-4-yl]-3-pyridyl]phenyl]cyclopropanecarboxylic Acid; Hydrochloride] |  | 60.5 | 122 | 5270 | 115 |  |  |  |  |  |  |  |  |  |  |  |
| CC(C)c1cncc(Nc2c(-c3ccc(-c4ccc(C5(C(=O)O)CC5)cc4C#N)cn3)cnn2C)n1 [Example 16, 1-[3-cyano-4-[6-[5-[(6-isopropylpyrazin-2-yl)amino]-1-methyl-pyrazol-4-yl]-3-pyridyl]phenyl]cyclopropanecarboxylic Acid; Hydrochloride] |  | 18.2 | 29.3 | 4620 | 53.8 |  |  |  |  |  |  |  |  |  |  |  |
